Tests used:
[1] = biological target: T1, Ba/F3 cells EML4-ALK L1196M/G1202R (variant 1) (Homo sapiens, UniProt Q9UM73, G1202R/L1196M); assay: Ba/F3 cell proliferation assay, EML4-ALK L1196M/G1202R (variant 1); assay type: cell-based; settings: 72 hours, CellTiter-Glo
T1 construct: echinoderm microtubule-associated protein-like 4 (EML4) gene and the ALK tyrosine kinase domain; host or cells: Ba/F3 (RIKEN), retroviral pMSCV-puro; the other entry of the earlier key: EML4 (Q9HC35, Echinoderm microtubule-associated protein-like 4)
Outline: (§1)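 IC50 values come from four-parameter logistic regression of CellTiter-Glo luminescence after 72 h exposure to 3-fold serial dilutions. Cells are Ba/F3 transformed by retroviral fusion-kinase constructs, grown without IL-3 under puromycin, plated at 1,000 per well a day before dosing.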

[2] = biological target: T2, Ba/F3 cells TPM3-TRKA (Homo sapiens, UniProt P04629); assay: Ba/F3 cell proliferation assay, TPM3-TRKA; assay type: cell-based; settings: 72 hours, CellTiter-Glo, read-out: TPM3-NTRK1-wt IC50
T2 construct: host or cells: Ba/F3 (RIKEN), retroviral pMSCV-puro; the other entry of the earlier key: TPM3 (P06753, Tropomyosin alpha-3 chain)
Outline: as §1

[3] = biological target: T3, ROS1-G2032R (Homo sapiens, UniProt P08922, G2032R); assay: Biochemical kinase assay, ROS1-G2032R kinase domain; settings: apparent inhibitory constant, Morrison equation; ATP 2 mM in substrate solution; read-out: ROS1-G2032R Ki^app
T3 construct: purchased SignalChem R14-12BG
Outline: (§2)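 Kinetic read: 485 nm, 2-min intervals, 120 min, 30 °C. Substrate mix — ATP 2 mM, AQT0101 26 μM, HEPES 50 mM pH 7.5, MgCl2 10 mM. Output: Ki^app, Morrison equation.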

[4] = test system: TPM3-NTRK1-wt IC50 / primary target IC50 (e.g. CD74-ROS1-wt); assay: TRKA selectivity in Ba/F3 cells (TRKA potency divided by primary target potency); assay type: cell-based; settings: for TPM3-NTRK1-wt/CD74-ROS1-G2032R selectivity ratio: TRKA potency / CD74-ROS1-G2032R potency; for TPM3-NTRK1-wt/CD74-ROS1-wt selectivity ratio: TRKA potency / CD74-ROS1-wt potency; for TPM3-NTRK1-wt/EML4-ALK-L1196M-G1202R selectivity ratio: TRKA potency / EML4-ALK-L1196M-G1202R potency; for TPM3-NTRK1-wt/EML4-ALK-wt selectivity ratio: TRKA potency / EML4-ALK-wt potency
Method: TRKA selectivity was calculated by dividing a compound's TRKA potency by its primary target potency (e.g. TPM3-NTRK1-wt IC50/CD74-ROS1-wt IC50). Compound selectivity can be interpreted by binning ratio values: bin A for very high selectivity, ratio >30-fold; bin B for high selectivity, ratio >10-fold; bin C for moderate selectivity, ratio ≥1; and bin D for low selectivity, ratio <1. […] (nd=not determined).

[5] = biological target: T4, ALK-wt (Homo sapiens, UniProt Q9UM73); assay: Biochemical kinase assay, ALK-wt kinase domain; settings: apparent inhibitory constant, Morrison equation; ATP 2 mM in substrate solution; read-out: ALK-wt Ki^app
T4 construct: purchased Carna 08-518
Outline: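 Compound in DMSO added first, then substrate solution (ATP 2 mM; AQT0101 or AQT0104, 26 μM; pH 7.5 HEPES, 10 mM MgCl2), then kinase solution with enzyme at 0.5–3 nM depending on construct. Kinetic read every 2 min for 120 min at 30° C; Ki^app by Morrison regression.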

[6] = biological target: T5, Ba/F3 cells CD74-ROS1 wild-type (wt) (Homo sapiens, UniProt P08922); assay: Ba/F3 cell proliferation assay, CD74-ROS1 wild-type; assay type: cell-based; settings: 72 hours, CellTiter-Glo
T5 construct: fusion of the C-terminus of ROS1 with the N-terminus of various partner proteins; host or cells: Ba/F3 (RIKEN), retroviral pMSCV-puro; the other entry of the earlier key: CD74 (P04233, HLA class II histocompatibility antigen gamma chain)
Outline: (§3)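 Cells seeded 1 day, then treated with 3-fold compound dilutions for 72 h; viability by CellTiter-Glo luminescence. IC50 from percent inhibition by four-parameter logistic fit.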

[7] = biological target: T6, Ba/F3 cells CD74-ROS1 G2032R (Homo sapiens, UniProt P08922, G2032R); assay: Ba/F3 cell proliferation assay, CD74-ROS1 G2032R; assay type: cell-based; settings: 72 hours, CellTiter-Glo
T6 construct: fusion of the C-terminus of ROS1 with the N-terminus of various partner proteins; host or cells: Ba/F3 (RIKEN), retroviral pMSCV-puro; the other entry of the earlier key: CD74 (P04233, HLA class II histocompatibility antigen gamma chain)
Outline: as §3

[8] = biological target: T7, ALK L1196M/G1202R (Homo sapiens, UniProt Q9UM73, G1202R/L1196M); assay: Biochemical kinase assay, ALK L1196M/G1202R kinase domain; settings: apparent inhibitory constant, Morrison equation; ATP 2 mM in substrate solution; read-out: ALK-L1196M-G1202R Ki^app
T7 construct: purchased SignalChem A19-12NG
Outline: (§4)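 Continuous fluorescence read (λ=485 nm, every 2 min, 120 min, 30° C). Substrate solution held 2 mM ATP and 26 μM AQT0101 (ROS1/ALK) or AQT0104 (TRKA). Kinase solution: ROS1-G2032R 0.5 nM, ROS1-wt 0.6 nM, TRKA 1 nM, ALK double mutant 3 nM. Initial linear rates fed a Morrison-equation fit giving Ki^app.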

[9] = biological target: T8, Ba/F3 cells EML4-ALK wt (variant 1) (Homo sapiens, UniProt Q9UM73); assay: Ba/F3 cell proliferation assay, EML4-ALK wt (variant 1); assay type: cell-based; settings: 72 hours, CellTiter-Glo
T8 construct: echinoderm microtubule-associated protein-like 4 (EML4) gene and the ALK tyrosine kinase domain; host or cells: Ba/F3 (RIKEN), retroviral pMSCV-puro; the other entry of the earlier key: EML4 (Q9HC35, Echinoderm microtubule-associated protein-like 4)
Outline: as §1

[10] = biological target: T9, ROS1-wt (Homo sapiens, UniProt P08922); assay: Biochemical kinase assay, ROS1-wt kinase domain; settings: apparent inhibitory constant, Morrison equation; ATP 2 mM in substrate solution; read-out: ROS1-wt Ki^app
T9 construct: purchased Carna 08-163
Outline: as §2

[11] = biological target: T10, TRKA-wt (Homo sapiens, UniProt P04629); assay: Biochemical kinase assay, TRKA-wt kinase domain; settings: apparent inhibitory constant, Morrison equation; ATP 2 mM in substrate solution; read-out: TRKA-wt Ki^app
T10 construct: or TRKA-wt (1 nM, BPS Bio, 40280) kinase domains in buffer; purchased BPS Bio 40280
Outline: as §4

T6 sequence (P08922 1883-2347 G2032R limits assumed): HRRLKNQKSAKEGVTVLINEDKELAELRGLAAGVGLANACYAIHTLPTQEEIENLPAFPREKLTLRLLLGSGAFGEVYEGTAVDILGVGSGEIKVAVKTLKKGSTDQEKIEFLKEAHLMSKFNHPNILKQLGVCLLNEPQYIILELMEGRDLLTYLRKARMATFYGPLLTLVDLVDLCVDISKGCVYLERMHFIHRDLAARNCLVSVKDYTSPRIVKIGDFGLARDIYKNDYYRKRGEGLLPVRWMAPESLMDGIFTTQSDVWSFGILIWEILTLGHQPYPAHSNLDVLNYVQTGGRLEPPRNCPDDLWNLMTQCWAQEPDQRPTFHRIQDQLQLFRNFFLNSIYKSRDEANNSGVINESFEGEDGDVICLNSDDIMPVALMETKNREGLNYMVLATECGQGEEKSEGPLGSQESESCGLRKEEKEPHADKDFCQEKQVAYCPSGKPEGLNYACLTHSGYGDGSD
T9 sequence (P08922 1945-2222 limits assumed): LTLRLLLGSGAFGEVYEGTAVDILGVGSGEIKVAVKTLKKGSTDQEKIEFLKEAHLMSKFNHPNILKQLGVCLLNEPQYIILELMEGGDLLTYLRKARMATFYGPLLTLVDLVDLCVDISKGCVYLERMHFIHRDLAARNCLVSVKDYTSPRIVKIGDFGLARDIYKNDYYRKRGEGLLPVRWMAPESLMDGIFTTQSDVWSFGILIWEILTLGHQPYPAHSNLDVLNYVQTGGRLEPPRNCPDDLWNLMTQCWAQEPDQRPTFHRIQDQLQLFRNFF
T2 sequence (P04629 510-796 limits assumed): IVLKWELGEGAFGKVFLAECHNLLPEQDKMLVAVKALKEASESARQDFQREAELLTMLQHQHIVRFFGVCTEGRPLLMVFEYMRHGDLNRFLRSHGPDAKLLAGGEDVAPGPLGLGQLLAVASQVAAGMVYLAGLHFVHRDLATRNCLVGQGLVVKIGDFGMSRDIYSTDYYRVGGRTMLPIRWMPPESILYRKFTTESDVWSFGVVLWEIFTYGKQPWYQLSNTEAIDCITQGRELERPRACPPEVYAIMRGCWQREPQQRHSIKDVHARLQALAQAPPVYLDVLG
T7 sequence (Q9UM73 1116-1392 L1196M/G1202R limits assumed): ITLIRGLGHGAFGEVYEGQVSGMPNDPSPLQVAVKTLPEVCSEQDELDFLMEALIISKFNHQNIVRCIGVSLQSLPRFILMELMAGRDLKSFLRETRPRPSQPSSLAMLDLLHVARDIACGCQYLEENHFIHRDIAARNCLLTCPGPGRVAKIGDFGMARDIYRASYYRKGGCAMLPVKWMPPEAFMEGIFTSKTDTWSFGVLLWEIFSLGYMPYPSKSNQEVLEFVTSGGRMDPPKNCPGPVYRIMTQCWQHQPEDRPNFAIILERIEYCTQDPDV
T1 sequence (Q9UM73 with tags, fused parts or gaps L1196M/G1202R): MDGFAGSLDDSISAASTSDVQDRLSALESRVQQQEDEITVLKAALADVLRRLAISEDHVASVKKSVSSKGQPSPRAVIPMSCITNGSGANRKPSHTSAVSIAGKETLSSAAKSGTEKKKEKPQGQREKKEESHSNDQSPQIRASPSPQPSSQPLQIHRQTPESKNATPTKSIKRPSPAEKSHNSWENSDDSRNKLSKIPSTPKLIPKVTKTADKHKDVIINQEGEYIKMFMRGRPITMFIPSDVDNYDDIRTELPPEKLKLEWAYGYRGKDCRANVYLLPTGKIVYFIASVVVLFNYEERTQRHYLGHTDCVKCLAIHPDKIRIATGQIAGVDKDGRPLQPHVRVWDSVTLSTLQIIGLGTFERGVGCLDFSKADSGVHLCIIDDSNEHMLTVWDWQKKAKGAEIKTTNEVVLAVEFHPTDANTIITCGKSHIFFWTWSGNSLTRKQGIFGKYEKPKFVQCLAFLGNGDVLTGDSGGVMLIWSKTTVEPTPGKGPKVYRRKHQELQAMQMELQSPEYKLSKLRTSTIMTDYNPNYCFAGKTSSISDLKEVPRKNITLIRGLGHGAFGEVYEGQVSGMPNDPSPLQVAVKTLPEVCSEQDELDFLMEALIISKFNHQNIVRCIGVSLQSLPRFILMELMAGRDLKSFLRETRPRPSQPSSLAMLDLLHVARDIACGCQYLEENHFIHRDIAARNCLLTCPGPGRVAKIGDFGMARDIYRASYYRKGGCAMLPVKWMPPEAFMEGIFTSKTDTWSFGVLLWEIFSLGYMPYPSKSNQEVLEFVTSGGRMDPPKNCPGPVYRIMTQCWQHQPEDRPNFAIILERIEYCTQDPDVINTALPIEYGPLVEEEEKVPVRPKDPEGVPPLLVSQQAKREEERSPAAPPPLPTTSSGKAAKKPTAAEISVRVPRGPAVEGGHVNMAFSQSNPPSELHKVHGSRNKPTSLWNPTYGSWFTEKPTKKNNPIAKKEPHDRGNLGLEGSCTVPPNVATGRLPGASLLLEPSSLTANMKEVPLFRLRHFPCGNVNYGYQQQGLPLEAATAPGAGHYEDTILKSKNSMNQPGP
T10 sequence (P04629 510-781 limits assumed): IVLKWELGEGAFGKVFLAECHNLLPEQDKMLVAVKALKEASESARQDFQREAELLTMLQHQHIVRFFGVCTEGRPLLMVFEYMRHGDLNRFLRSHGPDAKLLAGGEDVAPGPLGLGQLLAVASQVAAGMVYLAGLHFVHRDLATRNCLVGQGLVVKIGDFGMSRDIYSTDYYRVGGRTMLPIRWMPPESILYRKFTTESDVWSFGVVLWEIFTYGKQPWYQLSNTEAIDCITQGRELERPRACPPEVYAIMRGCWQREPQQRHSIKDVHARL
T5 sequence (P08922 1883-2347 limits assumed): as the sequence (P08922 1883-2347 G2032R limits assumed) above, with R150G counted along it
T3 sequence (P08922 1945-2222 G2032R limits assumed): as the sequence (P08922 1945-2222 limits assumed) above, with G88R counted along it
T8 sequence (Q9UM73 with tags, fused parts or gaps): as the sequence (Q9UM73 with tags, fused parts or gaps L1196M/G1202R) above, with M635L, R641G counted along it
T4 sequence (Q9UM73 1116-1392 limits assumed): as the sequence (Q9UM73 1116-1392 L1196M/G1202R limits assumed) above, with M81L, R87G counted along it

SMILES	IC50 [1] [nM]	IC50 [2] [nM]	Ki [3] [nM]	Ki [5] [nM]	IC50 [6] [nM]	IC50 [7] [nM]	Ki [8] [nM]	IC50 [9] [nM]	Ki [10] [nM]	Ki [11] [nM]	TPM3-NTRK1-wt/CD74-ROS1-G2032R selectivity ratio [4]	TPM3-NTRK1-wt/CD74-ROS1-wt selectivity ratio [4]	TPM3-NTRK1-wt/EML4-ALK-L1196M-G1202R selectivity ratio [4]	TPM3-NTRK1-wt/EML4-ALK-wt selectivity ratio [4]
Cc1nn(CC(C)C)c2c1Cn1ncnc1-c1ccc(F)cc1[C@@H](C)Oc1cc-2cnc1N [Example 79, (19R)-16-fluoro-5,19-dimethyl-3-(2-methylpropyl)-20-oxa-3,4,8,9,11,23-hexaazapentacyclo [19.3.1.0^2,^6.0^8,^12.0^13,^18]pentacosa-1(2.4),2(6),4,9,11,13,15,17,21(25),22-decaen-22-amine]	> 500	> 500	> 500	< 50	0.1 to 50	> 500	50 to 500	0.1 to 50	< 50	> 500	B (bin B for high selectivity, ratio >10-fold)	A (bin A for very high selectivity, ratio >30-fold)	C (bin C for moderate selectivity, ratio ≥1)	A (bin A for very high selectivity, ratio >30-fold)
CCn1ncc2c1-c1cnc(N)c(c1)OC(C)c1cc(F)cnc1-c1ccnn1C2 (stereo not drawn) [Example 37, 3-ethyl-16-fluoro-19-methyl-20-oxa-3,4,8,9,14,23-hexaazapentacyclo[19.3.1.0^2,^6.0^8,^12.0^13,^18]pentacosa-1(24),2(6),4,9,11,13,15,17,21(25),22-decaen-22-amine]	50 to 500	> 500	< 50	< 50	0.1 to 50	0.1 to 50	50 to 500	0.1 to 50	< 50	> 500	A (bin A for very high selectivity, ratio >30-fold)	A (bin A for very high selectivity, ratio >30-fold)	B (bin B for high selectivity, ratio >10-fold)	A (bin A for very high selectivity, ratio >30-fold)
C[C@H]1Oc2cc(cnc2N)-c2c(cnn2CC(F)F)Cn2nc(Cl)cc2-c2ccc(F)cc21 [Example 55, (19R)-10-chloro-3-(2,2difluoroethyl)-16-fluoro-19-methyl-20-oxa-3,4,8,9,23-pentaazapentacyclo[19.3.1.0^2,^6.0^8,^12.0^13,^18]pentacosa-1(24),2(6),4,9,11,13,15,17,21(25),22-decaen-22-amine]	50 to 500	> 500	< 50	< 50	0.1 to 50	0.1 to 50	50 to 500	0.1 to 50	< 50	> 500	A (bin A for very high selectivity, ratio >30-fold)	A (bin A for very high selectivity, ratio >30-fold)	C (bin C for moderate selectivity, ratio ≥1)	A (bin A for very high selectivity, ratio >30-fold)
CCn1ncc2c1-c1cnc(N)c(c1)O[C@H](C)c1cc(F)ccc1-c1ncnn1C2 [Example 35, (19R)-3-ethyl-16-fluoro-19-methyl-20-oxa-3,4,8,9,11,23-hexaazapentacyclo[19.3.1.0^2,^6.0^8,^12.0^13,^18]pentacosa-1(24),2(6),4,9,11,13,15,17,21(2 5),22-decaen-22-amine]	50 to 500	> 500	< 50	< 50	0.1 to 50	0.1 to 50	< 50	0.1 to 50	< 50	50 to 500	A (bin A for very high selectivity, ratio >30-fold)	A (bin A for very high selectivity, ratio >30-fold)	C (bin C for moderate selectivity, ratio ≥1)	A (bin A for very high selectivity, ratio >30-fold)

More lines, main results first:

IC50 [1] [nM]	IC50 [2] [nM]	Ki [3] [nM]	Ki [5] [nM]	IC50 [6] [nM]	IC50 [7] [nM]	Ki [8] [nM]	IC50 [9] [nM]	Ki [10] [nM]	Ki [11] [nM]	SMILES	TPM3-NTRK1-wt/CD74-ROS1-G2032R selectivity ratio [4]	TPM3-NTRK1-wt/CD74-ROS1-wt selectivity ratio [4]	TPM3-NTRK1-wt/EML4-ALK-L1196M-G1202R selectivity ratio [4]	TPM3-NTRK1-wt/EML4-ALK-wt selectivity ratio [4]
50 to 500	> 500	< 50	< 50	0.1 to 50	0.1 to 50	< 50	0.1 to 50	< 50	50 to 500	CCn1ncc2c1-c1cnc(N)c(c1)O[C@H](C)c1cc(F)ccc1-c1ccnn1C2 [Example 1, (19R)-3-ethyl-16-fluoro-19-methyl-20-oxa-3,4,8,9,23-pentaazapentacyclo[19.3.1.0^2,^6.0^8,^12.0^13,^18]pentacosa-1(24),2(6),4,9,11,13,15,17,21(25),22-decaen-22-amine]	A (bin A for very high selectivity, ratio >30-fold)	A (bin A for very high selectivity, ratio >30-fold)	B (bin B for high selectivity, ratio >10-fold)	A (bin A for very high selectivity, ratio >30-fold)
0.1 to 50	> 500	< 50	< 50	0.1 to 50	0.1 to 50	< 50	0.1 to 50	< 50	> 500	Cc1nc2c(o1)-c1ccc(F)cc1[C@@H](C)Oc1cc(cnc1N)-c1c(cnn1CC1CC1)C2 [Example 76, (19R)-3-(cyclopropylmethyl)-16-fluoro-10,19-dimethyl-11,20-dioxa-3,4,9,23-tetraazapentacyclo[19.3.1,0^2,^6.0^8,^12.0^13,^18]pentacosa-1(24),2(6),4,8(12),9,13,15,17,21(25),22-decaen-22-amine]	A (bin A for very high selectivity, ratio >30-fold)	A (bin A for very high selectivity, ratio >30-fold)	A (bin A for very high selectivity, ratio >30-fold)	A (bin A for very high selectivity, ratio >30-fold)
